Consider three compounds from patent US20130052268A1, “COMPOSITIONS AND METHODS FOR TREATMENT OF PARKINSON'S DISEASE” (THE MCLEAN HOSPITAL CORPORATION, priority 2010, published 2013).

What all share (type): cell-based, mouse
Series [1] has as its system SHH signaling. The series is described as follows: Wnt1 induction of Lmx1a in the presence of the SHH signaling inhibitor cyclopamine, qPCR at NP stage. The note with it: Wnt1-retrovirus transduced NP cells, 1 mM cyclopamine for 3 days. Here is the method:
FIG. 10A-B show interaction between SHH and other factors. […] J1 ES-derived NP cells were transduced with empty- or Wnt1-retrovirus and cultured in the absence or presence of […] cyclopamine for 3 days, and analyzed by qPCR at NP stage. […] NP stage cells were treated with 500 ng/ml of SHH or […] Cyclopamine for 6 hours and analyzed by qPCR.
(§1) It was previously shown that SHH treatment could ventralize chick intermediate midbrain explants, accompanied by induction of Lmx1a and other ventral midbrain phenotype (Andersson et al., 2006b). […] ES-derived NP cells were treated with 500 ng/ml SHH or 1 μM cyclopamine for 6 hours and analyzed by qPCR.
(In general: Quantitative PCR measures a nucleic acid by following its amplification.)

Series [2] concerns SHH signaling. The series is described as follows: Acute treatment of ES-derived NP cells with SHH or cyclopamine, qPCR. The note with it: 6 hours. As to the method: For all other samples, total RNA was prepared using TriReagent (Sigma, St. Louis, Mo.) followed by further purification using RNeasy mini kit (Qiagen, Valencia, Calif.). For RT-PCR analysis, 2 ? g of RNA were transcribed into cDNA with the SuperScript™ II RT (Invitrogen, Carlsbad, Calif.) and oligo (dT) primers. For quantitative analysis of the expression level of mRNAs, real-time PCR analyses using SYBR green I were performed using a DNA engine Opticon™ (MJ Research, Waltham, Mass.). To reduce non-specific signals, oligonucleotides amplifying small amplicons were designed using the MacVector software (Oxford Molecular Ltd.: primers sequences are available upon request). Amplifications were performed in 25 μl containing 0.5 μM of each primer,
0.5×SYBR Green I (Molecular Probes, Oreg.), and 2 μl of 5 fold diluted cDNA. Fifty PCR cycles were performed with a temperature profile consisting of 95° C. for 30 sec, 55° C. for 30 sec, 72° C. for 30 sec, and 79° C. for 5 sec. The dissociation curve of each PCR product was determined to ensure that the observed fluorescent signals were only from specific PCR products. After each PCR cycle, the fluorescent signals were detected at 79° C. to melt primer dimers (Tms of all primer dimers used in this study were <76° C.). A standard curve was constructed using plasmid DNAs containing the GAPDH gene (from 10^2 to 10^8 molecules). The fluorescent signals from specific PCR products were normalized against that of the β-actin gene, and then relative values were calculated by setting the normalized value of control as 1 (or 100 in some cases). All reactions were repeated using more than three independent samples.
as §1

A further series has as its system ES cell-derived NP cells. The series is described as follows: siRNA knock down of Lmx1a and Lmx1b in ES cell-derived NP and ND stage cells. As to the method: For siRNA transfection, NP stage cells were treated with 50 ng/ml FGF8 and 100 ng/ml SHH for 4 days to induce/proliferate mDA NPs, followed by transfection with siRNA using the Nucleofector (Amaxa, Walkersville, Md.) mouse stem cell kit with the program A-033 according to the manufacturer's instruction. Per transfection, 5×10^6 NP cells were treated with 480 pmol of siRNA, diluted in 10 ml of N3bFGF media (or N3 media for ND stage transfection) and plated in PLO/FN-coated multiwell plate, resulting in a final siRNA concentration of 48 nM. For ND stage transfection, cells were further differentiated in N3 media for 2 days before transfection. Multiple Stealth siRNAs were purchased from Invitrogen (Carlsbad, Calif.), screened for gene silencing efficiency by cotransfection with Lmx1a or Lmx1b-expressing plasmids and only siRNAs showing efficient gene silencing (>95%) was used for the experiments. The sequences of the siRNAs are as follows: the Lmx1a sense strand […] (SEQ ID NO: 1); the Lmx1a antisense strand […] (SEQ ID NO: 2); the Lmx1b sense strand […] (SEQ ID NO: 3); the Lmx1b antisense strand […] (SEQ ID NO: 4). Thirty hours after transfection, cells were fixed for immunocytochemistry or harvested for RNA preparation.
To further study the redundant function between Lmx1a and Lmx1b, experiments were carried out to knock down these genes using gene-specific siRNA approach. ES cell-derived NP cells were treated with SHH and FGF8 for 4 days to induce/proliferate mDA NPs, and then transfected with control siRNA, Lmx1a siRNA, Lmx1b siRNA or both Lmx1a/1b siRNAs using Nucleofector (Amaxa) and analyzed after 30 hours. […] This insignificant effect is in contrast with the robust induction effect observed in overexpression experiment (FIG. 5A). This can be explained by incomplete knockdown by siRNA and/or nonphysiological overexpression effect caused by retroviral transduction. […] Since Pitx3^+ cells were not yet detectable at this NP stage, the gene knockdown experiment was repeated at ND stage cells.

Where [3] appears, read: NP cells, 500 ng/ml SHH or 1 μM cyclopamine.
[4] abbreviates: ND stage, 30 hrs after transfection.
Where [5] appears, read: NP stage, 30 hours after transfection.
Setting [6] is: NP stage, 30 hours after transfection, 48 nM siRNA.

`CC1=C2C[C@H]3[C@@H](CC=C4C[C@@H](O)CC[C@@]43C)[C@@H]2CC[C@]12O[C@@H]1C[C@H](C)CN[C@H]1[C@H]2C` [cyclopamine]: in the series on SHH signaling [1], the “induction of Lmx1a gene expression by Wnt1” value is reported as “not affected”. In the series with SHH signaling [2] (setting [3]), the “Lmx1a mRNA levels” value is “no significant changes”, the “Nurr1 mRNA levels” value is “no significant changes” and the “TH mRNA levels” value is recorded as “no significant changes”. For the same compound, the “mRNA level of Gli1” value in the series with SHH signaling [2] (NP stage cells, 500 ng/ml SHH or μM Cyclopamine) is “reduced”.
Take “Lmx1a siRNA: Stealth siRNA, sense GAGGAGAGCAUUCAAGGCCUCGUUU (SEQ ID NO: 1), antisense SEQ ID NO: 2 (antisense AAACGAGGCCUUGAAUGCUCUCCUC; Stealth modification, further chemistry not given here)”: in the series with ES cell-derived NP cells (setting [4]), the “mRNA level of Lmx1a” value is “significantly reduced”. In the series on ES cell-derived NP cells (setting [5]), the Nurr1 gene expression entry was “did not have significant effect” and the Wnt1 gene expression result is given as “did not have significant effect”. In addition, the “mRNA level of Lmx1a” value in the series with ES cell-derived NP cells (setting [6]) is “significantly reduced”.
“Lmx1b siRNA: Stealth siRNA, sense GGAACGACUCCAUCUUCCACGAUAU (SEQ ID NO: 3), antisense SEQ ID NO: 4 (antisense AUAUCGUGGAAGAUGGAGUCGUUCC; Stealth modification, further chemistry not given here)”: the “mRNA level of Lmx1b” value in the series on ES cell-derived NP cells (setting [4]) and with ES cell-derived NP cells (setting [6]) was “significantly reduced” each time. Besides, the Nurr1 gene expression entry in the series on ES cell-derived NP cells (setting [5]) is reported as “did not have significant effect”. The Wnt1 gene expression entry with ES cell-derived NP cells (setting [5]) is on record as “did not have significant effect”.
